Among the test systems are RXF 393 renal; HOP-92 NSCLC; NCI-H522 lung; TK-10 renal; OVCAR-5 ovarian; OVCAR-4 ovarian; SF-295 CNS; SF-268 CNS; U251 CNS; NCI-H226 lung.
Holding throughout (assay): growth of human tumour cells (NCI), 48 h

Several values for one entry are separate records, joined by “and”; a condition that tells them apart may be missing. Equal entries are not always repeated.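 Test compounds were applied to cells in 96-well plates for 48 hours at 5 doses. Abbreviation: GI50, concentration required for 50% inhibition of growth. TGI is the concentration that stops growth completely.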

As to `CCCCC(CC)C(=O)Oc1ccc(C(=O)c2ccccc2)c(O)c1` (stereo not drawn), the TGI with RXF 393 renal was greater than 100 µM; in the experiment on HOP-92 NSCLC, 59.4 µM; in the experiment with NCI-H522 lung, 98.2 µM; in the experiment on TK-10 renal, greater than 100 µM; in the experiment with OVCAR-5 ovarian, greater than 100 µM; with OVCAR-4 ovarian, greater than 100 µM. For the same compound, the TGI in the experiment with SF-295 CNS, with SF-268 CNS and in the experiment with U251 CNS was greater than 100 µM throughout.
As to `C[C@@]12CC[C@@H](O)C[C@@H]1CC[C@H]1[C@H]2CC[C@@]2(C)[C@H](c3ccc(=O)oc3)CC[C@@]12O`, the GI50 in the experiment on RXF 393 renal was less than 0.01 µM; in the experiment with HOP-92 NSCLC, less than 0.01 µM; in the experiment on NCI-H522 lung, less than 0.01 µM; with TK-10 renal, less than 0.01 µM; in the experiment on OVCAR-5 ovarian, 0.0132 µM; in the experiment with OVCAR-4 ovarian, less than 0.0124 µM. Also, the GI50 in the experiment on NCI-H226 lung was less than 0.0183 µM; with SF-295 CNS it was less than 0.01 µM; with SF-268 CNS it was less than 0.01 µM; with U251 CNS, less than 0.01 µM. Besides, the TGI turned out to be 0.0571 µM with HOP-92 NSCLC; 0.021 µM in the experiment on NCI-H522 lung; 0.028 µM in the experiment with TK-10 renal; 0.0426 µM in the experiment on OVCAR-5 ovarian; 0.0639 µM in the experiment with OVCAR-4 ovarian; 0.0723 µM in the experiment with NCI-H226 lung. Further, the figures for the TGI in the experiment with SF-295 CNS, in the experiment on SF-268 CNS and in the experiment with U251 CNS were 0.025 µM, 0.0344 µM and 0.0363 µM, respectively.
As to `CCOC(=O)c1sc2nc(SC)nc3c2c1NC(=O)CN3c1ccc(F)cc1`, the TGI in the experiment with RXF 393 renal is 41.8 µM; in the experiment with HOP-92 NSCLC it was greater than 100 µM; with NCI-H522 lung, greater than 100 µM; in the experiment on TK-10 renal it was greater than 100 µM; in the experiment on OVCAR-5 ovarian, greater than 100 µM; in the experiment on OVCAR-4 ovarian, greater than 100 µM. Also, the TGI in the experiment on NCI-H226 lung is 91.5 µM; in the experiment with SF-295 CNS, 57.9 µM; in the experiment on SF-268 CNS it was 36.2 µM; in the experiment on U251 CNS it was greater than 100 µM.
`CCCCCCCCCCCCCCCCCCN(C)CC(COC)OP(=O)([O-])OCC[N+](C)(C)C` (stereo not drawn): the TGI in the experiment on RXF 393 renal was 2.29 µM; in the experiment with HOP-92 NSCLC, 3.33 µM; with NCI-H522 lung, 4.22 µM; in the experiment with TK-10 renal, 3.06 µM; in the experiment on OVCAR-5 ovarian, 5.95 µM; in the experiment on OVCAR-4 ovarian, 9.75 µM. Moreover, the TGI with NCI-H226 lung came to 13.5 µM; in the experiment with SF-295 CNS, 4.71 µM; with SF-268 CNS, 4.17 µM; in the experiment on U251 CNS, 2.44 µM.
For `O=C1c2cc3c(cc2[C@@H]2C(O)[C@H]4O[C@H]4C4CCN1C42)OCO3` (stereo partly drawn), the TGI in the experiment with HOP-92 NSCLC, with NCI-H522 lung, in the experiment with TK-10 renal, in the experiment with OVCAR-5 ovarian, in the experiment with OVCAR-4 ovarian and with NCI-H226 lung was greater than 37.5 µM throughout. Moreover, the TGI in the experiment with SF-295 CNS and in the experiment on SF-268 CNS was greater than 37.5 µM throughout.
Regarding `Cc1ccc(C(=O)NC2C(=O)NC(C(C)C)C(=O)N3CCCC3C(=O)N(C)CC(=O)N(C)C(C(C)C)C(=O)OC2C)c2c1Oc1c(c(C(=O)NC3C(=O)NC(C(C)C)C(=O)N4CCCC4C(=O)N(C)CC(=O)N(C)C(C(C)C)C(=O)OC3C)c3nc(-c4ccccc4)c(=O)oc3c1C)N2` (stereo not drawn), the TGI is 0.00911 µM in the experiment with RXF 393 renal; 0.156 µM and 0.0741 µM with HOP-92 NSCLC; 0.0342 µM with NCI-H522 lung; 11.4 µM with TK-10 renal; 0.00918 µM in the experiment with OVCAR-5 ovarian; 0.00507 µM in the experiment on NCI-H226 lung. This compound also showed a TGI in the experiment on SF-295 CNS of 0.12 µM. Moreover, in the experiment on TK-10 renal, the GI50 is 0.013 µM.
Turning to `c1ccc(-c2cc3nc4ccccc4nc3cc(-c3ccccc3)[nH][nH]2)cc1`, the TGI was greater than 100 µM in the experiment on RXF 393 renal; greater than 100 µM in the experiment on HOP-92 NSCLC; greater than 100 µM in the experiment with NCI-H522 lung; 51.8 µM in the experiment on TK-10 renal; greater than 100 µM in the experiment with OVCAR-5 ovarian; greater than 100 µM in the experiment on OVCAR-4 ovarian. Also, the TGI is greater than 100 µM with NCI-H226 lung, 88.7 µM in the experiment with SF-295 CNS, greater than 100 µM in the experiment on SF-268 CNS and greater than 100 µM in the experiment with U251 CNS.
With `Nc1[nH]c(=O)nc2c1cnn2COCCO`, the TGI is 93.7 µM in the experiment with RXF 393 renal; greater than 100 µM in the experiment on HOP-92 NSCLC; 99.9 µM in the experiment on TK-10 renal; 73.6 µM with OVCAR-5 ovarian; greater than 100 µM with OVCAR-4 ovarian; 6.36 µM in the experiment with NCI-H226 lung. In addition, the TGI in the experiment with SF-295 CNS was greater than 100 µM; in the experiment with SF-268 CNS, greater than 100 µM; in the experiment on U251 CNS it was 52.8 µM.
As to `C/C=C\C1OC1(C)c1cc(=O)c2c(C)cc3c(c2o1)C(=O)c1c(O)c(C2CC(C)(N(C)C)C(OC(C)=O)C(C)O2)cc(C2CC(N(C)C)C(O)C(C)O2)c1C3=O` (stereo not drawn), the TGI in the experiment on RXF 393 renal was found to be 0.00746 µM; with HOP-92 NSCLC, 0.0251 µM; with NCI-H522 lung it was 0.00964 µM; with TK-10 renal, 1.47 µM; with OVCAR-5 ovarian it was 0.488 µM; in the experiment on OVCAR-4 ovarian, 0.00888 µM. The TGI in the experiment on NCI-H226 lung is 0.018 µM; in the experiment on SF-295 CNS, 0.00762 µM; in the experiment on SF-268 CNS, 0.0721 µM; with U251 CNS, 0.0394 µM.
Regarding `CC1CC(C)(O)C2C3(C)CCCC2(COC3=O)C12CCC1(CCOC1=O)O2` (stereo not drawn), the TGI in the experiment on RXF 393 renal, with HOP-92 NSCLC, in the experiment with NCI-H522 lung, in the experiment with OVCAR-5 ovarian, with OVCAR-4 ovarian and in the experiment with NCI-H226 lung was greater than 250 µM each time. Besides, the TGI with SF-295 CNS, in the experiment with SF-268 CNS and in the experiment with U251 CNS was greater than 250 µM each time.
Take `COc1cc2cc(C(=O)N3CC(CCl)c4ccc(NO)cc43)[nH]c2c(OC)c1OC` (stereo not drawn): the TGI in the experiment on RXF 393 renal was 0.343 µM; in the experiment with NCI-H522 lung, 0.354 µM; with TK-10 renal it was greater than 100 µM; in the experiment with OVCAR-5 ovarian it was greater than 37.2 µM; with OVCAR-4 ovarian it was 0.774 µM; in the experiment on SF-295 CNS, 0.6 µM. For the same compound, in the experiment with SF-268 CNS, the TGI was found to be 0.749 µM.
With `CCOC(=O)C(C(=O)OCC)c1cc(-c2cc3ccccc3o2)oc(=O)c1C#N`, the TGI amounted to 43.5 µM in the experiment on RXF 393 renal; 20.6 µM in the experiment on HOP-92 NSCLC; 52.1 µM in the experiment with TK-10 renal; 33.1 µM in the experiment on OVCAR-5 ovarian; 71.4 µM in the experiment on OVCAR-4 ovarian; 41.9 µM in the experiment on NCI-H226 lung. In addition, the TGI in the experiment on SF-295 CNS is 48.2 µM; with SF-268 CNS, greater than 100 µM; in the experiment on U251 CNS it was 30.6 µM.
On to `CC(C)N(CC(=O)O)CC(=O)O`, for which the TGI in the experiment on RXF 393 renal, with HOP-92 NSCLC, with NCI-H522 lung, with TK-10 renal, with OVCAR-5 ovarian and in the experiment with OVCAR-4 ovarian was greater than 100 µM throughout. Moreover, the TGI in the experiment on NCI-H226 lung, with SF-295 CNS, with SF-268 CNS and in the experiment on U251 CNS was greater than 100 µM throughout.
Take `O=C(O)C1=C(CO)Oc2cc3c(cc2C1c1ccc2c(c1)OCO2)OCO3` (stereo not drawn): the TGI in the experiment on RXF 393 renal, in the experiment on HOP-92 NSCLC, with TK-10 renal, in the experiment on OVCAR-4 ovarian, in the experiment on SF-295 CNS and in the experiment with U251 CNS was greater than 100 µM in each case.
As to `O=P1(Oc2ccc(Cl)cc2Cl)Oc2cc3ccccc3cc2O1`, the TGI in the experiment on RXF 393 renal is greater than 100 µM; in the experiment with HOP-92 NSCLC it was greater than 100 µM; in the experiment on NCI-H522 lung, 82.6 µM; in the experiment with OVCAR-5 ovarian, greater than 100 µM; with OVCAR-4 ovarian, greater than 100 µM; in the experiment with NCI-H226 lung it was greater than 100 µM. Moreover, the TGI with SF-295 CNS, in the experiment on SF-268 CNS and in the experiment with U251 CNS was greater than 100 µM in each case.
As for `C=C(C)[C@@H]1CC[C@]2(C(=O)O)CC[C@]3(C)[C@H](CC[C@@H]4[C@@]5(C)C/C(=C/c6ccco6)C(=O)C(C)(C)[C@@H]5CC[C@]43C)[C@@H]12`, the GI50 is 2.81 µM in the experiment on NCI-H522 lung; 3.65 µM in the experiment with TK-10 renal; 5.9 µM in the experiment with OVCAR-4 ovarian; 3.24 µM with SF-295 CNS; 3.63 µM with SF-268 CNS. Moreover, the TGI with NCI-H522 lung was 9.85 µM; in the experiment on TK-10 renal, 46.9 µM; in the experiment on OVCAR-4 ovarian, greater than 100 µM; in the experiment with SF-295 CNS it was greater than 100 µM; with SF-268 CNS, greater than 100 µM.

The record behind these values is PubChem BioAssay (NCI).
